Test results taken from publication PMC10712727, “Safety, Tolerability, and Pharmacokinetics of Senaparib, a Novel PARP1/2 Inhibitor, in Chinese Patients With Advanced Solid Tumors: A Phase I Trial” (The Oncologist, 2023).
Entries after “also recorded” stand apart in the source; their conditions may differ.

What was measured:
[1] = Plasma pharmacokinetics in continuous dosing period, cycle 1 day 15 steady state (HPLC-MS/MS); assay type: in vivo, human; conditions: dose range of 2-120 mg
[2] = tested on: patients with advanced solid tumors; assay: Dose-limiting toxicities, MTD and RP2D determination (modified 3 + 3 dose escalation); assay type: in vivo
Description: Dose escalation was conducted using a modified Fibonacci 3 + 3 method (Supplementary Fig. S1).[17] Patients were administered oral senaparib from a planned starting dose of 2 mg once daily (QD), with preliminary dose escalation to 120 mg via nine dose groups, in order of their entry into the study. At a given dose level, each patient received a single dose of senaparib followed by a 7-day washout period. They then entered a continuous dosing period to confirm the safety and PK profile, in which they received senaparib QD from day 1 to day 21 of each 3-week cycle. Progression to the next higher dose required approval from the Data Safety Monitoring Committee (DSMC) upon review of the safety and PK data of the previous dose. […]
DLTs were predefined toxicities (Supplementary Table S2) recorded over the 7 days following the single-dose administration of senaparib and during the first treatment cycle (day 1-day 21) for each dose group in the dose-escalation period only. […] Plasma concentrations of senaparib were determined using high-performance liquid chromatography-tandem mass spectrometry. Tumor response was assessed every 6 weeks per RECIST v1.1,[16] recording objective response rate (ORR), disease control rate (DCR), duration of response (DOR), and progression-free survival (PFS) by dose level for all patients and for those harboring BRCA^mut+ tumors.

anticancer animal models = tested on: anticancer animal models; parameters: method as in doi:10.1158/1538-7445.am2022-1399; conditions: in vivo studies (anticancer animal models); cited from earlier work

SMILES: O=C(c1cc(Cn2c(=O)[nH]c(=O)c3c(F)cccc32)ccc1F)N1CCN(c2ncccn2)CC1 [Senaparib]
- Dose linearity [1]: Dose linearity was not observed
- Dose-limiting toxicities (DLTs) ([2]; DLT observation period, dose escalation, 2-120 mg QD and 50 mg BID): No dose-limiting toxicities were observed; also recorded: No DLTs were observed
- Maximum tolerated dose (MTD) ([2]; doses up to 120 mg QD): not reached
- Potency relative to the PARP inhibitor olaparib (anticancer animal models): 20 fold
